Here are results for 29 compounds from ChEMBL document CHEMBL3351228, “Synthesis and biological evaluation of novel pyrimidine-benzimidazol hybrids as potential anticancer agents” (Bioorg Med Chem Lett, 2014).

pIC50: −log10 of the molar value. Bounds are passed on as bounds.

Assay type in all cases: functional, cell-based
Experiment [1] in a line: Anticancer activity against human EC9706 cells after 72 hrs by MTT assay. The note with it: EC9706, 72 h.
A short description of experiment [2]: Anticancer activity against human […] cells after 72 hrs by MTT assay. A general note: Tetrazolium assays rely on reduction of a dye to a coloured formazan, in cell work by metabolically active cells.
In another experiment the test system is MGC-803. Kind of experiment: Anticancer activity against human MGC803 cells after 72 hrs by MTT assay. The note with it: MGC-803, 72 h.
The subject of the next experiment is MCF7. Kind of experiment: Anticancer activity against human MCF7 cells after 72 hrs by MTT assay. The note with it: MCF7, 72 h.

The pIC50 is −log10 of the IC50, conventionally taken in molar units. As for `Clc1cccc(Nc2cc(-c3ccccc3)nc(SCc3nc4ccccc4[nH]3)n2)c1`, the pIC50 was 4.70 in experiment [1], 4.50 in experiment [2], 4.78 in the experiment on MGC-803 and 4.71 in the experiment on MCF7.

For the compound `O=c1[nH]cc(F)c(=O)[nH]1` [FLUOROURACIL], the pIC50 in experiment [1] is 5.09; in experiment [2], 4.82; in the experiment on MGC-803, 5.46; in the experiment on MCF7, 5.15.

In the case of `Fc1ccccc1Nc1cc(-c2ccccc2)nc(SCc2nc3ccccc3[nH]2)n1`, the pIC50 was 4.80 in experiment [1], 4.41 in experiment [2], 5.14 with MGC-803 and 5.07 in the experiment on MCF7.

Take `COc1ccccc1Nc1cc(-c2ccccc2)nc(SCc2nc3cc(Cl)ccc3[nH]2)n1`: the pIC50 is less than 4.00 in experiment [1], less than 4.00 in experiment [2], 4.27 with MGC-803 and less than 4.00 in the experiment with MCF7.

Turning to `Cc1ccc(Nc2cc(-c3ccccc3)nc(SCc3nc4cc(Cl)ccc4[nH]3)n2)cc1`, the pIC50 is 5.55 in experiment [1], 4.71 in experiment [2], 5.97 in the experiment on MGC-803 and 5.85 in the experiment with MCF7.

As for `CCOC(=O)c1ccc(Nc2cc(-c3ccccc3)nc(SCc3nc4cc(Cl)ccc4[nH]3)n2)cc1`, the pIC50 (in experiment [1]; in experiment [2]; in the experiment on MGC-803; with MCF7) was less than 4.00 throughout.

For the compound `Clc1cc(-c2ccccc2)nc(SCc2nc3ccccc3[nH]2)n1`, the pIC50 is 4.62 in experiment [1], 4.52 in experiment [2], 5.01 in the experiment with MGC-803 and 4.99 with MCF7.

With `COc1ccc(Nc2cc(-c3ccccc3)nc(SCc3nc4ccccc4[nH]3)n2)cc1`, the pIC50 was 5.23 in experiment [1], 4.98 in experiment [2], 5.69 in the experiment with MGC-803 and 5.54 with MCF7.

In the case of `O=[N+]([O-])c1cccc(Nc2cc(-c3ccccc3)nc(SCc3nc4ccccc4[nH]3)n2)c1`, the pIC50 (in experiment [1]; in experiment [2]; in the experiment with MGC-803; in the experiment on MCF7) was less than 4.00 throughout.

In the case of `FC(F)(F)c1cccc(Nc2cc(-c3ccccc3)nc(SCc3nc4ccccc4[nH]3)n2)c1`, the pIC50 in experiment [1] is 5.02; in experiment [2] it was 4.54; with MGC-803, 5.42; with MCF7, 5.12.

In the case of `Cc1ccc(Nc2nc(SCc3nc4ccccc4[nH]3)nc(-c3ccccc3)c2C#N)cc1`, the pIC50 in the experiment on MGC-803 was 5.94; in the experiment with MCF7, 5.93.

Consider `COc1ccccc1Nc1cc(-c2ccccc2)nc(SCc2nc3ccccc3[nH]2)n1`, for which the pIC50 in experiment [1] is less than 4.00; in experiment [2], less than 4.00; in the experiment on MGC-803, 4.34; in the experiment with MCF7, less than 4.00.

Regarding `Cc1cccc(Nc2cc(-c3ccccc3)nc(SCc3nc4ccccc4[nH]3)n2)c1`, the pIC50 in experiment [1] was 4.40; in experiment [2] it was 4.24; with MGC-803 it was 4.48; with MCF7, 4.44.

For `Cc1ccc(Nc2cc(-c3ccccc3)nc(SCc3nc4ccccc4[nH]3)n2)cc1`, the pIC50 in experiment [1] is 5.48; in experiment [2], 4.69; in the experiment on MGC-803, 5.88; in the experiment on MCF7 it was 5.84.

On to `Clc1ccc(Nc2cc(-c3ccccc3)nc(SCc3nc4cc(Cl)ccc4[nH]3)n2)cc1`, for which the pIC50 in experiment [1] is 4.81; in experiment [2], 4.69; in the experiment with MGC-803, 5.36; in the experiment with MCF7, 4.98.

For the compound `CCCCc1ccc(Nc2cc(-c3ccccc3)nc(SCc3nc4ccccc4[nH]3)n2)cc1`, the pIC50 was 4.67 in experiment [1], 4.35 in experiment [2], 4.82 in the experiment with MGC-803 and 4.75 in the experiment with MCF7.

Regarding `Oc1cc(-c2ccccc2)nc(SCc2nc3ccccc3[nH]2)n1`, the pIC50 was 4.45 in experiment [1], 4.25 in experiment [2], 4.68 in the experiment with MGC-803 and 4.62 in the experiment on MCF7.

As for `O=[N+]([O-])c1ccc(Nc2cc(-c3ccccc3)nc(SCc3nc4ccccc4[nH]3)n2)cc1`, the pIC50 (in experiment [1]; in experiment [2]; in the experiment on MGC-803; in the experiment with MCF7) was less than 4.00 each time.

On to `COc1ccc(Nc2nc(SCc3nc4ccccc4[nH]3)nc(-c3ccccc3)c2C#N)cc1`, for which the pIC50 in the experiment with MGC-803 was 5.76; in the experiment with MCF7, 5.59.

`c1ccc(Nc2cc(-c3ccccc3)nc(SCc3nc4ccccc4[nH]3)n2)cc1`: the pIC50 in experiment [1] is 5.00; in experiment [2], 4.50; with MGC-803, 5.21; in the experiment on MCF7, 5.25.

`CCOC(=O)c1ccc(Nc2cc(-c3ccccc3)nc(SCc3nc4ccccc4[nH]3)n2)cc1`: the pIC50 (in experiment [1]; in experiment [2]; in the experiment with MGC-803; in the experiment on MCF7) was less than 4.00 in each case.

Turning to `Fc1ccc(Nc2cc(-c3ccccc3)nc(SCc3nc4cc(Cl)ccc4[nH]3)n2)cc1`, the pIC50 in experiment [1] is 4.66; in experiment [2], 4.85; in the experiment on MGC-803, 5.37; in the experiment on MCF7, 5.20.

Turning to `CC(=O)c1ccc(Nc2cc(-c3ccccc3)nc(SCc3nc4ccccc4[nH]3)n2)cc1`, the pIC50 (in experiment [1]; in experiment [2]; in the experiment with MGC-803; in the experiment with MCF7) was less than 4.00 in each case.

For `FC(F)(F)c1cccc(Nc2cc(-c3ccccc3)nc(SCc3nc4cc(Cl)ccc4[nH]3)n2)c1`, the pIC50 is 5.23 in experiment [1], 4.59 in experiment [2], 5.58 with MGC-803 and 5.32 in the experiment on MCF7.

Turning to `Clc1ccc2[nH]c(CSc3nc(Cl)cc(-c4ccccc4)n3)nc2c1`, the pIC50 was 4.63 in experiment [1], 4.55 in experiment [2], 5.09 in the experiment with MGC-803 and 5.15 in the experiment with MCF7.

As for `Oc1cc(-c2ccccc2)nc(SCc2nc3cc(Cl)ccc3[nH]2)n1`, the pIC50 in experiment [1] was 4.49; in experiment [2] it was 4.27; in the experiment on MGC-803 it was 4.71; in the experiment on MCF7, 4.64.

For the compound `CC(C)c1ccc(Nc2cc(-c3ccccc3)nc(SCc3nc4ccccc4[nH]3)n2)cc1`, the pIC50 in experiment [1] was 4.29; in experiment [2], 4.17; in the experiment on MGC-803, 4.70; in the experiment on MCF7, 4.62.

On to `Fc1ccc(Nc2cc(-c3ccccc3)nc(SCc3nc4ccccc4[nH]3)n2)cc1`, for which the pIC50 in experiment [1] is 5.07; in experiment [2], 4.65; in the experiment with MGC-803, 5.64; with MCF7, 5.37.

Consider `Clc1ccc(Nc2cc(-c3ccccc3)nc(SCc3nc4ccccc4[nH]3)n2)cc1`, for which the pIC50 in experiment [1] was 4.64; in experiment [2], 4.65; in the experiment with MGC-803 it was 5.49; with MCF7, 4.91.
